# Laboratory results: US20050182020A1, “Ceramide de novo synthesis-based therapeutic and prophylactic methods, and related articles of manufacture” (priority 2003, published 2005)
# Tests used:
# [1] = tested on: SRE-mediated gene transcription; test: SRE-mediated gene transcription, Part II inhibitors of sphingolipid synthesis and DAG generation; type: cell-based; design: SRE-mediated gene transcription inhibited to: unit of the concentration uncertain
# Protocol: Reduction of de novo sphingolipid synthesis: Incubation with methylthiodihydroceramide (10 μM) for 6 h reduces SRE-mediated gene transcription to 40%. Methylthiodihydroceramide was received from Gerhild van Echten-Deckert (1). Reduction of de novo sphingolipid biosynthesis by 1-methylthiodihydroceramide is due to its ability to deplete cells of newly formed free sphinganine.
# Inhibition of sphingomyelin synthesis: The D609 compound is a xanthate and inhibitor of sphingomyelin synthase. It is a mixture of several isoforms (2). Experiments were carried out with five defined isomers of D609 received via Gemma Fabrias (Dept. of Biological Organic Chemistry, Barcelona, Spain) (Table 1). […] A concentration curve of 10, 20 and 40 μg/ml was tested over 5 h.
# Data: Propanolol ([…]) inhibits SRE-mediated gene transcription to 40% (+3%) within 30 min. Resvaratrol ([…]) inhibits SRE-mediated gene transcription to 7% (±16%) within 4 h.
# [2] = tested on: SRE-mediated gene transcription; test: SRE-promoter luciferase reporter gene assay in stably transfected CHO cells; type: cell-based, Chinese hamster; settings: for SRE-mediated gene transcription (luciferase RLU/protein): myriocin 1 μM, cycloserine 500 mM, fumonisin B1 10 μM, PPMP 20 μM, NB-DNJ 40 μM, cholesterol/25-OH cholesterol 10/1 μg/ml, vs 1% BSA
# Protocol: FIG. 3. Inhibition of ceramide synthesis and SRE-mediated gene transcription. (A) Decreased ceramide synthesis correlates with decreased levels of SRE-mediated gene transcription and mSREBP. […] After cell lysis, luciferase activity was analyzed, and expressed as a ratio of protein content. Data represent the average (±S.D.) of at least 4 different experiments, each performed in triplicate. […] CHO cells stably transfected with an SRE-promoter construct linked to the luciferase reporter gene were incubated for 8 h in the presence of control conditions (1% BSA) or increasing levels of myriocin (0.25-1 μM). After cell lysis, luciferase activity was analyzed, expressed as a ratio of protein content. Data represent the average (±S.D.) of at least 3 different experiments, each performed in triplicate.
# FIG. 4. Increased ceramide synthesis and SRE-mediated gene transcription. (A) Increased ceramide de novo synthesis correlates with increased SRE-mediated gene transcription. On day 1, CHO cells stably transfected with an SRE-promoter construct linked to the luciferase reporter gene were plated at 80% confluency. […] Cells were harvested, lysed and analyzed for luciferase activity (measured in relative light units, RLU) and protein content. Data are expressed as percentage of control and represent the average (±S.D.) of three different experiments, each performed in triplicate. Inset: Western blot analysis: On day 1, CHO cells were plated in regular growth medium. On day 2, cells were incubated for 8 h with control medium (1% BSA) or DMS (5 μM). Whole cell extracts (30 μg protein) were loaded on a 4-14% continuous gradient SDS-PAGE gel. P and M denote the precursor (125 kd) and mature (68 kd) form of SREBP-1 in a representative experiment. (B) DMS increases ceramide de novo synthesis. CHO cells were treated for 3.5 h either with control conditions (1% BSA) or DMS (2.5-5 μM). […] Data are expressed as dpm/protein and represent a typical experiment.
# (§1) FIG. 5. LY-B cells fail to recover SRE-mediated gene transcription in cholesterol depletion but recover SRE-mediated gene transcription in the presence of DMS. […] Both cell lines have been transfected to stably express an SRE-promoter construct linked to the luciferase reporter gene. On day 2, cells were incubated for 16 h with 1% BSA (control) or in the presence of cholesterol (10 μg/ml) and 25-OH cholesterol (1 μg/ml) to decrease SRE-mediated gene transcription. Then, incubation medium was switched to 1% BSA or DMS (5 μM) for 6 h. After cell lysis, luciferase activity was analyzed, expressed as a ratio of protein content. Data represent the average (±S.D.) of at least 4 different experiments, each performed in triplicate.
# Cell culture and stable transfections: Cells were grown in F12-nutrient mixture medium containing 10% fetal bovine serum (FBS), 1% glutamine (v/v), 1% penicillin/streptomycin (v/v), and 10% fetal bovine serum (v/v) at 37° C. in humidified CO2 (5%). To obtain stable transfectants, cells were plated in 12-well plates at 50% confluency and transfected for 5 h in the presence of serum-free Dulbecco's modified Eagle's medium (DMEM) with pSyn SRE (1 μg/well) and pWLNeo (0.25 μg/well) using Lipofectamin (1.5 μl/well). Cells were then incubated for 2 days in growth medium. On day three, neomycin-containing medium (400 μg/ml) was added. Selection for neomycin resistant colonies was continued for three weeks. Pooled clones were analyzed for luciferase expression. Experiments were performed with pooled clones as well as with cells derived from a single clone. Cells were grown in the presence of 400 μg/ml neomycin. For experimental use, cells were plated in the absence of neomycin at least 24 h ahead in regular growth medium.
# Enzyme assays: Cells to be analyzed for luciferase activity were lyzed in lysis buffer A containing 0.1% Triton X-100, 50 mM Hepes, 10 mM MgSO4, pH 7.7. Cells were scraped, collected, vortexed and briefly centrifuged to pellet cell debris. […]
# HMG-CoA synthase mRNA = settings: previously shown (ref. 10); cited from earlier work
# [3] = tested on: SRE-mediated gene transcription; test: SRE-promoter luciferase reporter gene assay in LY-B cells (CHO cells mutated in LCB1 subunit of serine-palmitoyl transferase); type: cell-based, Chinese hamster; settings: preliminary data
# Protocol: as §1
# Enzyme assays: Cells to be analyzed for luciferase activity were lyzed in lysis buffer A containing 0.1% Triton X-100, 50 mM Hepes, 10 mM MgSO4, pH 7.7. Cells were scraped, collected, vortexed and briefly centrifuged to pellet cell debris. An aliquot was used to measure luciferase activities in a luminometer (Berthold LB 9501, Wallac Inc., Gaithersburg, Md.) with a luciferin reagent from Promega (Madison, Wis.). Luciferase activity in relative light units (RLU) was divided by protein content (mg/ml) for each extract. […]
# [4] = tested on: Niemann Pick Disease Type A fibroblasts; test: Ceramide de novo synthesis (3H-serine) in NPA fibroblasts; type: cell-based; settings: overnight incubation with agent, vs 1% BSA
# Protocol: FIG. 19. Ceramide synthesis is increased in NPA fibroblasts. Fibroblasts from different control individuals and from two different cell lines derived from Niemann Pick Disease Type A were incubated for 4 h in the presence of ^3H-serine to measure de novo ceramide synthesis after having been incubated overnight in either control medium (1% BSA) or in the presence of cholesterol or C8-Ceramide. Lipid extraction and separation were carried out.
# HSN1 cells (4561) = test: Cholesterol / cholesterylester synthesis from 3H-mevalonate in HSN1 cells; type: cell-based, human; settings: 16 h, 3H-mevalonate
# Protocol: FIG. 12. Increased free cholesterol synthesis in HSN cells. In order to investigate whether increased SRE-mediated gene transcription also results in increased cholesterol synthesis cells were incubated with radioactive mevalonate, a precursor which represents a committed step in cholesterol synthesis (see FIG. 11). Control and HSN1 cells were incubated for 7 h and 18 h in the presence of trace amounts of ^3H-mevalonate. Lipids were extracted and separated by thin […] chromatography (TLC). Radioactive counts in the cholesterol fraction were analyzed by liquid scintillation counting.
# FIG. 14. Oleic acid increases HSN 4561 synthesis of high levels of free cholesterol but not cholesteryl ester. Cells were incubated for 4 h with ^3H-mevalonate and grown in the presence or absence of 0.3 mM oleic acid.
# FIG. 16. Incubation with mevastatin decreases free cholesterol synthesis in HSN cells as well as in controls. Cells were treated for 16 h in the presence of ^3H-mevalonate to assess cholesterol de novo synthesis and several inhibitors of either cholesterol or ceramide synthesis (Mevastatin=Statin), C6 ceramide (previously shown by us to decreased SREBP levels and SRE-mediated gene transcription), cycloserine (inhibitor of serine-palmiltoyl transferase), cholesterol (classical inhibitor of de novo synthesis by negative feedback).
# SREBP-1 = test: Western blot analysis of precursor and mature SREBP-1 in CHO cells; type: cell-based, Chinese hamster; settings: C6-ceramide 20 μM, 4 h and 8 h, vs controls
# Protocol: FIG. 2. C6-ceramide increases pSREBP levels. On day 1, CHO cells were plated in regular growth medium. On day 2, cells were incubated for 4 and 8 h with 1% BSA (control) or in the presence of C6-ceramide (20 μM). Whole cell extracts (30 μg protein) were loaded on a 4-14% continuous gradient SDS-PAGE gel. P denotes the precursor (125 kd) form of SREBP-1 in a representative experiment. C6 ceramide increases the precursor form of SREBP-1 and decreases the mature form of SREBP-1. […] The blot is representative of experiments carried out with ceramide analogues of different chain length. Densitometric results were obtained by analyzing pixels/inch (corrected for actin) and expressed relative to control.
# FIG. 4. Increased ceramide synthesis and SRE-mediated gene transcription. (A) Increased ceramide de novo synthesis correlates with increased SRE-mediated gene transcription. […] Cells were harvested, lysed and analyzed for luciferase activity (measured in relative light units, RLU) and protein content. Data are expressed as percentage of control and represent the average (±S.D.) of three different experiments, each performed in triplicate. […] Data are expressed as dpm/protein and represent a typical experiment.
# Western blot analysis: Cells were plated on day one in regular growth medium. […] Densitometric quantification was carried out using Scion Image beta 4.02 software (www.scioncorp.com). […]
compound,measurement,setting,value
CC(C)NCC(O)COc1cccc2ccccc12 (stereo not shown) [Propanolol],SRE-mediated gene transcription inhibited to,"[1]; 250 (unit uncertain), within 30 min",40% (+3%)
1-methylthiodihydroceramide,SRE-mediated gene transcription reduced to,"[1]; 10 μM, 6 h",40%
N[C@@H]1CON=C1O [cycloserine],SRE-mediated gene transcription (luciferase RLU/protein),[2]; 8 h,significantly reduced
"CCCCCCCCCCCCCC(=O)N[C@H](C)[C@@H](O)c1ccccc1 [D-MAPP, (1S,2R)-D-erythro-2-(N-Myristoylamino)-1-phenyl-1-propanol]",mRNA levels of HMG-CoA synthase,HMG-CoA synthase mRNA,decrease
"Oc1ccc(C=Cc2cc(O)cc(O)c2)cc1 [Resvaratrol, resveratrol]",SRE-mediated gene transcription inhibited to,"[1]; 300 (unit uncertain), within 4 h",7% (±16%)
"CCCCCCCCCCCCCCCC(=O)NC(CN1CCOCC1)C(O)c1ccccc1.Cl (racemic) [PPMP, DL-threo-1-Phenyl-2-palmitoylamino-3-morpholino-1-propanol HCL]",SRE-mediated gene transcription (luciferase RLU/protein),[2]; 8 h,significantly reduce
CCCCCCCCCCCCC/C=C/[C@@H](O)[C@@H](N)CO [Sphingosine],increase of SRE-mediated gene transcription,"[2]; sphingosine 1.5 μM, 8 h",up to two-fold
ceramide,mRNA levels of HMG-CoA synthase,HMG-CoA synthase mRNA,decrease
same,SRE-mediated gene transcription in LYB-cells incubated with ceramide,[3],did not decrease
same,SRE-mediated gene transcription on addition of ceramide,"[2]; under the experimental conditions of FIG. 3, data not shown",did not increase
"CCCCCCCCCCCCC/C=C/[C@@H](O)[C@H](CO)NC(=O)CCCCCCC [C8-ceramide, D-erythro N-octanoylsphingosine]","ceramide de novo synthesis (3H-serine, 4 h)",[4],significantly decreases
D-erythro hexanoylsphingosine [C6-ceramide],sensitivity of cholesterol de novo synthesis in HSN1 cells (4561) relative to control cells,HSN1 cells (4561),more sensitive
same,cellular levels of pSREBP,SREBP-1,increased
same,levels of mSREBP,SREBP-1,decreased
AG10,Reduction of SRE-mediated gene transcription(40 μg/ml),"[1]; 40 μg/ml, 5 h",52% (±11%)
"CCCCN1C[C@H](O)[C@@H](O)[C@H](O)[C@H]1CO.Cl [NB-DNJ, N-Butyldeoxynojirimycin-HCL]",SRE-mediated gene transcription (luciferase RLU/protein),[2]; 8 h,does not affect
